Common to all, as to type: cell-based
Assay [1] deals with SKBR3 human breast cancer cells. Put plainly: Resistance to photo-bleaching after uptake and irradiation. The settings on record: after uptake, 1 minute of irradiation. As to the method:
(§1) A 5-ALA solution in deionized H2O at 100 mM was prepared and added when required at a final concentration of 200 uM (6 uL per well). After the predetermined incubation time, cells are fixed using the following protocol. The medium was removed and the cells gently rinsed with PBS buffer (2 mL per well), two mL fixation medium (3.7% formaldehyde in PBS) was added followed by incubation at room temperature (RT) for 15 min. The fixation medium was removed and fresh PBS was added to gently rinse the cells. The coverslips were removed from the wells and mounted on glass slides. […] Within each study, all microscopic settings (filter, light intensity, exposure time, and magnification) were identical. Microscopic images of the cells after treatment with various types of QDs and/or 5-ALA are shown in FIGS. 2A-2L through FIGS. 4A-4K.

In assay [2] the test system is normal human fibroblast cells (HFF). Put plainly: Labeling of normal fibroblast cells. To be noted: 16 hrs, QD 50 μg/mL, free 5-ALA 0.2 mM.
Assay [3] deals with SKBR3 human breast cancer cells. Put plainly: Comparison of 5-ALA intracellular uptake, fluorescence microscopy. The settings on record: incubation 3, 5, 16 h, QDs about 50 ug/mL, free 5-ALA 200 uM. As to the method: as §1, with “SKBR3 human breast cancer cells are cultivated in 6 well plates supplied with glass coverslips using McCoy's 5a medium from ATCC (3 mL per well). […]” for “A 5-ALA”, “identical.” for “identical. Microscopic images of the cells after treatment with various types of QDs and/or 5-ALA are shown in FIGS. 2A-2L through FIGS. 4A-4K.”

With `NCC(=O)CCC(=O)O` [free 5-ALA, 5-Aminolevulinic acid], in assay [1], the photo-bleaching result is “rapid photo-bleaching and signal disappearance”. For the same compound, the “labeling of normal cells” value in assay [2] is reported as “lack of labeling”. Besides, the “emission at 630 nm” value in assay [3] is reported as “weaker emission”.

These data come from patent US20200306377A1, “METHODS FOR ENHANCING 5-AMINOLEVULINIC ACID-BASED MEDICAL IMAGING AND PHOTOTHERAPY” (priority 2017, published 2020).
